Measured values from publication PMC3093256, “Synthesis of 1-Substituted Carbazolyl-1,2,3,4-tetrahydro- and Carbazolyl-3,4-dihydro-β-carboline Analogs as Potential Antitumor Agents” (Marine Drugs, 2011).
In brackets after ≈: the same amount, converted by molar mass.

What was measured:
[1] = test system: HepG2/A2 (human hepatoma); experiment: Cytotoxicity assay, HepG2/A2 cells; format: cell-based; settings: for IC50: Homo sapiens, 72 h, HepG2/A2 cells, 3 days incubation, by interpolation
Procedure: (§1) The cytotoxic activities of compounds against KB (human mouth epidermoid carcinoma), DLD (human colon adenocarcinoma), NCI-H661 (human lung large cell carcinoma), Hepa (human hepatoma), and HepG2/A2 (human hepatoblastoma) cells were assayed by the […] assay as previously described. The cells for assay were cultured in RPMI-1640 medium supplemented with […] in an incubator at 37 °C. The cytotoxicity assay depends on the binding of methylene blue to fixed monolayers of cells at pH 8.5, washing the monolayer, and releasing the dye by lowering the pH value. Samples and control standard drugs were prepared at a concentration of 1, 10, 40, and 100 μg/mL. After seeding 2880 cells/well in a 96-well microplate for 3 h, 20 μL of sample or standard agent was placed in each well and incubated at 37 °C for 3 days. After removing the medium from the microplates, the cells were fixed with 10% formaldehyde in 0.9% saline for 30 min, then dyed with 1% (w/v) methylene blue in 0.01 M borate-buffer (100 μL/well) for 30 min. The 96-well plate was dipped into a 0.01 M borate-buffer solution four times in order to remove the dye. Then, 100 μL/well of EtOH-0.1 M HCl (1:1) was added as a dye eluting solvent, and the absorbance was measured on a microtiter plate reader (Dynatech, MR 7000) at a wavelength of 650 nm. […] Doxorubicin was used as a standard compound.

[2] = test system: KB (human mouth epidermoid carcinoma); experiment: Cytotoxicity assay, KB cells; format: cell-based; settings: 72 h, 3 days incubation, by interpolation
Procedure: as §1

[3] = test system: NCI-H661 (human lung large cell carcinoma); experiment: Cytotoxicity assay, NCI-H661 cells; format: cell-based; settings: 72 h, 3 days incubation, by interpolation
Procedure: as §1

[4] = target: T1, human DNA topoisomerase II (Homo sapiens, UniProt P11388); experiment: Relaxation assay of topoisomerase II (supercoiled pBR322); format: biochemical; settings: for IC50: five concentrations 5, 10, 25, 50 and 100 μg/mL, read-out: Inhibition of DNA topoisomerase II IC50 (converted); for inhibition of DNA topoisomerase II (in words): compared with etoposide; for fold more potent against topoisomerase II compared to etoposide: relative to etoposide
T1 construct: purchased TopoGen
T1 sequence (P11388 whole entry): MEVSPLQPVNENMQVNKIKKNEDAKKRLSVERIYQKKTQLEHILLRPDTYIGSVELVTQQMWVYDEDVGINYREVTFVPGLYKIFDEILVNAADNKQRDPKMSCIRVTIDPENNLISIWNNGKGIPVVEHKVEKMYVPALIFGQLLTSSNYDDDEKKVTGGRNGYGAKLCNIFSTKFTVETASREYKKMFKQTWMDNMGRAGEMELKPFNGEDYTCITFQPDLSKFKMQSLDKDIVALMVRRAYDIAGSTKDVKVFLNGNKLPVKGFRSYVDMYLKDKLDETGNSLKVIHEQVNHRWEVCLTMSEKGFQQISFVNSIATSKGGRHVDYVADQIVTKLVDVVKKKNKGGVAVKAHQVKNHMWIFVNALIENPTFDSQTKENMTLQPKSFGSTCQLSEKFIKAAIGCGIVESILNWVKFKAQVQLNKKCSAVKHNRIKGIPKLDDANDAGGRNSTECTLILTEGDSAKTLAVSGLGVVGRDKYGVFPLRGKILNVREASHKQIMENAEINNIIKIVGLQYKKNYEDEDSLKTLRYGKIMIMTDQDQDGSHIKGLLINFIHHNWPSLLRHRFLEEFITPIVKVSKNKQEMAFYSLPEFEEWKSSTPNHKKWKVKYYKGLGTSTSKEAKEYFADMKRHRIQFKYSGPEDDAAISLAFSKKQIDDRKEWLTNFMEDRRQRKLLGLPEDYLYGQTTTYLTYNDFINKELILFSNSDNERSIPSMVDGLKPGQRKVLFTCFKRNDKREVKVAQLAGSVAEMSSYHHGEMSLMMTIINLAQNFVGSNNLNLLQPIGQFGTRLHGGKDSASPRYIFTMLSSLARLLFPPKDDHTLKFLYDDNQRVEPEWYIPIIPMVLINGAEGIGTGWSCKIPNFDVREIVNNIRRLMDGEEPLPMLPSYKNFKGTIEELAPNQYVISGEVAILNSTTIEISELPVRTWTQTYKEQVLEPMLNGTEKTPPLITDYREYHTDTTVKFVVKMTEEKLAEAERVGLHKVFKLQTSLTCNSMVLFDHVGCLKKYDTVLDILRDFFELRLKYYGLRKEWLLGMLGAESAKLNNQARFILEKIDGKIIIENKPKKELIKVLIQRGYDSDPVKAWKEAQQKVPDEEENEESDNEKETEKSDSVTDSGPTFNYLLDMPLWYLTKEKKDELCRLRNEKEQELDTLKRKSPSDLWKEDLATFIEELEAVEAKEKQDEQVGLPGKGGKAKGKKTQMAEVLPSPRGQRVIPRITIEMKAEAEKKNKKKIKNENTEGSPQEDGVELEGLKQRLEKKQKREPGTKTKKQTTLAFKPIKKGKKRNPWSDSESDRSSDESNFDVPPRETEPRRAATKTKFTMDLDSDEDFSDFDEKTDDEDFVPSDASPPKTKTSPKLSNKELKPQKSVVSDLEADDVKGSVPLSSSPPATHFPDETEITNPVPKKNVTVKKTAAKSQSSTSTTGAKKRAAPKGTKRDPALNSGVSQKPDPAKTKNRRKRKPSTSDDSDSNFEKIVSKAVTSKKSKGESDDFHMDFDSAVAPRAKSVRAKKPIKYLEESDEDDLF
Procedure: (§2) Topoisomerases I and II (topo I and II) assays were measured by assessing relaxation of supercoiled pBR322 plasmid DNA according to [24]. […] In summary, topo I (TopoGen) was mixed with the test sample and 10° volume of assay buffer (100 mM Tris-HCl, 10 mM EDTA, 1.5 M NACl, 1.0% BSA, […], and 50% glycerol), and then supercoiled DNA (pBR322) was added. In topo II assay, the mixture contained test sample and buffer including 50 mM Tris-HCl, 120 mM KCl, 10 mM MgCl2, 0.5 mM ATP, 0.5 mM dithiothreitol, 2 μg BSA, pBR322 plasmid DNA (0.25 μg), and 3U of topo II (TopoGen) in final volume of 20 μL. After incubation of topo I or topo II mixture for 30 min at 37 °C, 2 λ 10% SDS and 2.5 λ proteinase K were added for 1 h. The reaction mixtures were electrophoresed on a 2% agarose gel (50 V, 20 min; 100 V, 30 min; 110 V, 30 min) and stained with ethidium bromide. Finally, by a densitometer of ImageMaster® (Fujifilm thermal imaging system, FTI-500), the gels were directly scanned and the area representing supercoiled DNA was calculated.

[5] = target: T2, human DNA topoisomerase I (Homo sapiens, UniProt P11387); experiment: Relaxation assay of topoisomerase I (supercoiled pBR322); format: biochemical; settings: five concentrations 5, 10, 25, 50 and 100 μg/mL; read-out: Inhibition of DNA topoisomerase I IC50 (converted)
T2 construct: purchased TopoGen
T2 sequence (P11387 1-765): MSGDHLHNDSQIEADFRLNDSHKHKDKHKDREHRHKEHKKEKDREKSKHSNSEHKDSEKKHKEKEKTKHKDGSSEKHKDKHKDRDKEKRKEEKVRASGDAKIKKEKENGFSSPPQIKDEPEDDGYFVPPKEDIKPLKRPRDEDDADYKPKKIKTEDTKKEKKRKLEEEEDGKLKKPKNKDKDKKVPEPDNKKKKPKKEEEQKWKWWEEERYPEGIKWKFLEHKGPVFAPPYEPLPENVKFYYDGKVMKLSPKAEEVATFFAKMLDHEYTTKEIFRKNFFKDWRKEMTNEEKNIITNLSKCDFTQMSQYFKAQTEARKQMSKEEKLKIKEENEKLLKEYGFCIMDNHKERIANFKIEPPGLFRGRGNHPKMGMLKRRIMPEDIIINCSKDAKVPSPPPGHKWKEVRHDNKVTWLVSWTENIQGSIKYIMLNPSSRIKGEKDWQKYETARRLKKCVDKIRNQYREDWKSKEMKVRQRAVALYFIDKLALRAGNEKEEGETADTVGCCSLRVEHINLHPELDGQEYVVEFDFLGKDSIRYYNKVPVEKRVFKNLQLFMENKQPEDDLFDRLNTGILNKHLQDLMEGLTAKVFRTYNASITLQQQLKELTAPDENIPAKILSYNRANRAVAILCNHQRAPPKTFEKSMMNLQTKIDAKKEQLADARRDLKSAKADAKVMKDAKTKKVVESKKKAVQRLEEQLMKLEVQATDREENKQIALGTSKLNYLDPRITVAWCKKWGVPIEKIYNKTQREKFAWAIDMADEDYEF
Procedure: as §2

[6] = test system: DLD (human colon adenocarcinoma); experiment: Cytotoxicity assay, DLD cells; format: cell-based; settings: Homo sapiens, 72 h, 3 days incubation, by interpolation
Procedure: as §1

Hepa (human hepatoma) = experiment: Cytotoxicity assay, Hepa cells; format: cell-based; settings: 72 h, 3 days incubation, by interpolation
Procedure: as §1

| SMILES | cytotoxicity against HepG2/A2 (in words) ([1]; HepG2/A2 tumor cells) | IC50 [1] [µg/mL] | IC50 [2] [µg/mL] | melting point [°C] | IC50 [3] [µg/mL] | IC50 [4] [µM] | IC50 [5] [µM] | IC50 [6] [µg/mL] | inhibition of DNA topoisomerase II (in words) [4] | fold more potent against topoisomerase II compared to etoposide [4] | IC50 (Hepa (human hepatoma)) [µg/mL] |
| --- | --- | --- | --- | --- | --- | --- | --- | --- | --- | --- | --- |
| CCCCCn1c2ccccc2c2cc(C3=NCCc4c3[nH]c3ccccc43)ccc21 [Compound 8, 1-(9′-Pentyl-3′-carbazolyl)-3,4-dihydro-β-carboline] | active | 5.4 (≈ 13.3 µM) | > 20 | 97 to 98 | 3.39 (≈ 8.36 µM) | 54.2 | 143 | 1.29 (≈ 3.18 µM) |  |  |  |
| CCCn1c2ccccc2c2cc(C3NCCc4c3[nH]c3ccccc43)ccc21 (stereo not drawn) [Compound 3, 1-(9′-Propyl-3′-carbazolyl)-1,2,3,4-tetrahydro-β-carboline] |  | 6.1 (≈ 16.1 µM) | 1.84 (≈ 4.85 µM) | 110 to 112 | 2.14 (≈ 5.64 µM) | 4.22 | 124 | 1.58 (≈ 4.16 µM) | most potent | 10- to 15 fold |  |
| CCn1c2ccccc2c2cc(C3NCCc4c3[nH]c3ccccc43)ccc21 (stereo not drawn) [Compound 1, 1-(9′-Ethyl-3′-carbazolyl)-1,2,3,4-tetrahydro-β-carboline] |  |  | 3.47 (≈ 9.49 µM) | 240 to 242 | 1.82 (≈ 4.98 µM) | 26 | > 274 | 1.69 (≈ 4.62 µM) |  |  |  |
| CCC(C)n1c2ccccc2c2cc(C3NCCc4c3[nH]c3ccccc43)ccc21 (stereo not drawn) [Compound 5, 1-(9′-[1″-Methyl]propyl-3′-carbazolyl)-1,2,3,4-tetrahydro-β-carboline] |  |  | 3 (≈ 7.62 µM) | 127 to 130 |  | 25.4 | > 254 |  |  |  | 2.25 (≈ 5.72 µM) |
| CCCn1c2ccccc2c2cc(C3=NCCc4c3[nH]c3ccccc43)ccc21 [Compound 4, 1-(9′-Propyl-3′-carbazolyl)-3,4-dihydro-β-carboline] |  | 5.1 (≈ 13.5 µM) | 2.72 (≈ 7.21 µM) | 126 to 128 | 5.02 (≈ 13.3 µM) | 5.56 | > 265 | 2.16 (≈ 5.72 µM) | most potent | 10- to 15 fold |  |
| CCC(C)n1c2ccccc2c2cc(C3=NCCc4c3[nH]c3ccccc43)ccc21 (stereo not drawn) [Compound 6, 1-(9′-[1″-Methyl]propyl-3′-carbazolyl)-3,4-dihydro-β-carboline] |  |  | 0.48 (≈ 1.23 µM) | 151 to 154 |  | 66.4 | > 255 |  |  |  | 2.67 (≈ 6.82 µM) |
| CCCCCCCCCCn1c2ccccc2c2cc(C3=NCCc4c3[nH]c3ccccc43)ccc21 [Compound 14, 1-(9′-Decyl-3′-carbazolyl)-3,4-dihydro-β-carboline] |  | > 60 | > 20 | 78 to 80 | > 20 | 39.9 | > 210 | > 20 |  |  | > 20 |
| CCCCCCCCCCCCCCCCCCCCn1c2ccccc2c2cc(C3NCCc4c3[nH]c3ccccc43)ccc21 (stereo not drawn) [Compound 17, 1-(9′-Eicosyl-3′-carbazolyl)-1,2,3,4-tetrahydro-β-carboline] |  | > 60 | > 20 |  | > 20 | > 162 | > 162 | > 20 |  |  | > 20 |
